Measured values: patent publication EP0041644B1 (priority 1980, dated 1981)

How the values were obtained:
L1210 Leukemia = L1210 Leukemia - Test 3 (vehicle comparison); assay type: in vivo, mice; details: Day 1 only, vehicle Saline
B16 Melanoma = B16 Melanoma - Test 3 (sc trocar fragments); assay type: in vivo, mice
Lewis Lung Carcinoma = Lewis Lung Carcinoma - Test 1 (ip, delayed therapy); assay type: in vivo, mice
L-1210 Leukemia = L-1210 Leukemia (Table VIII)
Method: The sodium and ammonium salts of the present invention were tested against transplantable mouse tumors as indicated below. The methodology used generally followed the protocols of the National Cancer Institute (Cancer Chemotherapy Rep., Part 3, 3, 1-103 (1972). The essential experimental details are given at the bottom of the following tables.

N.N.[Cl][Pt][Cl] [Cis-DDP, cis-diammine dichloroplatinum (II)]
Average Weight Change (L1210 Leukemia; 4 mg/kg ip): −1.7 | Effect MST % T/C (L1210 Leukemia; 4 mg/kg ip): 143 % T/C | MST Days (L1210 Leukemia; 4 mg/kg ip): 10.0 days | Survivors Day 5 (L1210 Leukemia; 4 mg/kg ip): 6/6 | Average Weight Change (L1210 Leukemia; 6 mg/kg ip): −2.3 | Effect MST % T/C (L1210 Leukemia; 6 mg/kg ip): 143 % T/C | MST Days (L1210 Leukemia; 6 mg/kg ip): 10.0 days | Survivors Day 5 (L1210 Leukemia; 6 mg/kg ip): 6/6 | Average Weight Change (L1210 Leukemia; 8 mg/kg ip): −1.8 | Effect MST % T/C (L1210 Leukemia; 8 mg/kg ip): 150 % T/C | MST Days (L1210 Leukemia; 8 mg/kg ip): 10.5 days | Survivors Day 5 (L1210 Leukemia; 8 mg/kg ip): 6/6 | Average Weight Change (L1210 Leukemia; 10 mg/kg ip): −4.5 | Effect MST % T/C (L1210 Leukemia; 10 mg/kg ip): 150 % T/C | MST Days (L1210 Leukemia; 10 mg/kg ip): 10.5 days | Survivors Day 5 (L1210 Leukemia; 10 mg/kg ip): 6/6 | Average Weight Change (B16 Melanoma; 0.8 mg/kg/inj ip, qd 1→9): -0.4 g | Effect MST %TC (B16 Melanoma; 0.8 mg/kg/inj ip, qd 1→9): 113 %TC | MST Days (B16 Melanoma; 0.8 mg/kg/inj ip, qd 1→9): 34.5 days | Average Weight Change (B16 Melanoma; 1.6 mg/kg/inj ip, qd 1→9): -2.4 g | Effect MST %TC (B16 Melanoma; 1.6 mg/kg/inj ip, qd 1→9): 118 %TC | MST Days (B16 Melanoma; 1.6 mg/kg/inj ip, qd 1→9): 36.0 days | Average Weight Change (B16 Melanoma; 2.4 mg/kg/inj ip, qd 1→9): -3.5 g | Effect MST %TC (B16 Melanoma; 2.4 mg/kg/inj ip, qd 1→9): 97 %TC | MST Days (B16 Melanoma; 2.4 mg/kg/inj ip, qd 1→9): 29.5 days | Average Weight Change (B16 Melanoma; 4 mg/kg/inj iv, d.1, 5 & 9): -0.6 g | Effect MST %TC (B16 Melanoma; 4 mg/kg/inj iv, d.1, 5 & 9): 156 %TC | MST Days (B16 Melanoma; 4 mg/kg/inj iv, d.1, 5 & 9): 47.5 days | Average Weight Change (B16 Melanoma; 6 mg/kg/inj iv, d.1, 5 & 9): -2.2 g | Effect MST %TC (B16 Melanoma; 6 mg/kg/inj iv, d.1, 5 & 9): 131 %TC | MST Days (B16 Melanoma; 6 mg/kg/inj iv, d.1, 5 & 9): 40.0 days | Average Weight Change (B16 Melanoma; 8 mg/kg/inj iv, d.1, 5 & 9): -2.8 g | Effect MST %TC (B16 Melanoma; 8 mg/kg/inj iv, d.1, 5 & 9): 125 %TC | MST Days (B16 Melanoma; 8 mg/kg/inj iv, d.1, 5 & 9): 38.0 days | Survivors Day 10 (60) (B16 Melanoma; 8 mg/kg/inj iv, d.1, 5 & 9): 9/10 | T/C (B16 Melanoma; given ip, sc-implanted B16 melanoma): inactive | maximum T/C (B16 Melanoma; given iv, sc-implanted B16 melanoma): 156% | Av. Wt. Change,g Day 9 (Lewis Lung Carcinoma; 0.4 mg/kg/inj ip, qd 5→13): -0.4 g | Effect MST %TC (Lewis Lung Carcinoma; 0.4 mg/kg/inj ip, qd 5→13): 124 %TC | MST Days (Lewis Lung Carcinoma; 0.4 mg/kg/inj ip, qd 5→13): 15.5 days | Av. Wt. Change,g Day 9 (Lewis Lung Carcinoma; 0.8 mg/kg/inj ip, qd 5→13): -0.6 g | Effect MST %TC (Lewis Lung Carcinoma; 0.8 mg/kg/inj ip, qd 5→13): 136 %TC | MST Days (Lewis Lung Carcinoma; 0.8 mg/kg/inj ip, qd 5→13): 17.0 days | Av. Wt. Change,g Day 9 (Lewis Lung Carcinoma; 1.6 mg/kg/inj ip, qd 5→13): -1.8 g | Effect MST %TC (Lewis Lung Carcinoma; 1.6 mg/kg/inj ip, qd 5→13): 184 %TC | MST Days (Lewis Lung Carcinoma; 1.6 mg/kg/inj ip, qd 5→13): 23.0 days | Av. Wt. Change,g Day 9 (Lewis Lung Carcinoma; 2 mg/kg/inj ip, d. 5, 9&13): +0.8 g | Effect MST %TC (Lewis Lung Carcinoma; 2 mg/kg/inj ip, d. 5, 9&13): 152 %TC | MST Days (Lewis Lung Carcinoma; 2 mg/kg/inj ip, d. 5, 9&13): 19.0 days | Av. Wt. Change,g Day 9 (Lewis Lung Carcinoma; 2 mg/kg/inj iv, d. 5,9&13): +0.6 g | Effect MST %TC (Lewis Lung Carcinoma; 2 mg/kg/inj iv, d. 5,9&13): 104 %TC | MST Days (Lewis Lung Carcinoma; 2 mg/kg/inj iv, d. 5,9&13): 13.0 days | Av. Wt. Change,g Day 9 (Lewis Lung Carcinoma; 2.4 mg/kg/inj ip, qd 5→13): -2.4 g | Effect MST %TC (Lewis Lung Carcinoma; 2.4 mg/kg/inj ip, qd 5→13): 212 %TC | MST Days (Lewis Lung Carcinoma; 2.4 mg/kg/inj ip, qd 5→13): 26.5 days | Av. Wt. Change,g Day 9 (Lewis Lung Carcinoma; 4 mg/kg/inj ip, d. 5, 9&13): -0.3 g | Effect MST %TC (Lewis Lung Carcinoma; 4 mg/kg/inj ip, d. 5, 9&13): 168 %TC | MST Days (Lewis Lung Carcinoma; 4 mg/kg/inj ip, d. 5, 9&13): 21.0 days | Av. Wt. Change,g Day 9 (Lewis Lung Carcinoma; 4 mg/kg/inj iv, d. 5,9&13): -0.7 g | Effect MST %TC (Lewis Lung Carcinoma; 4 mg/kg/inj iv, d. 5,9&13): 120 %TC | MST Days (Lewis Lung Carcinoma; 4 mg/kg/inj iv, d. 5,9&13): 15.0 days | Av. Wt. Change,g Day 9 (Lewis Lung Carcinoma; 6 mg/kg/inj ip, d. 5, 9&13): -0.8 g | Effect MST %TC (Lewis Lung Carcinoma; 6 mg/kg/inj ip, d. 5, 9&13): 220 %TC | MST Days (Lewis Lung Carcinoma; 6 mg/kg/inj ip, d. 5, 9&13): 27.5 days | Av. Wt. Change,g Day 9 (Lewis Lung Carcinoma; 6 mg/kg/inj iv, d. 5,9&13): -1.1 g | Effect MST %TC (Lewis Lung Carcinoma; 6 mg/kg/inj iv, d. 5,9&13): 108 %TC | MST Days (Lewis Lung Carcinoma; 6 mg/kg/inj iv, d. 5,9&13): 13.5 days | Av. Wt. Change,g Day 9 (Lewis Lung Carcinoma; 8 mg/kg/inj ip, d. 5, 9&13): -2.7 g | Effect MST %TC (Lewis Lung Carcinoma; 8 mg/kg/inj ip, d. 5, 9&13): 128 %TC | MST Days (Lewis Lung Carcinoma; 8 mg/kg/inj ip, d. 5, 9&13): 16.0 days | Av. Wt. Change,g Day 9 (Lewis Lung Carcinoma; 8 mg/kg/inj iv, d. 5,9&13): -0.7 g | Effect MST %TC (Lewis Lung Carcinoma; 8 mg/kg/inj iv, d. 5,9&13): 112 %TC | MST Days (Lewis Lung Carcinoma; 8 mg/kg/inj iv, d. 5,9&13): 14.0 days | Survivors Day 9(48) (Lewis Lung Carcinoma; 0.4 mg/kg/inj ip, qd 5→13): 6/6 | Survivors Day 9(48) (Lewis Lung Carcinoma; 0.8 mg/kg/inj ip, qd 5→13): 5/6 | Survivors Day 9(48) (Lewis Lung Carcinoma; 1.6 mg/kg/inj ip, qd 5→13): 6/6 | Survivors Day 9(48) (Lewis Lung Carcinoma; 2 mg/kg/inj ip, d. 5, 9&13): 6/6 | Survivors Day 9(48) (Lewis Lung Carcinoma; 2 mg/kg/inj iv, d. 5,9&13): 6/6 | Survivors Day 9(48) (Lewis Lung Carcinoma; 2.4 mg/kg/inj ip, qd 5→13): 6/6 | Survivors Day 9(48) (Lewis Lung Carcinoma; 4 mg/kg/inj ip, d. 5, 9&13): 6/6 | Survivors Day 9(48) (Lewis Lung Carcinoma; 4 mg/kg/inj iv, d. 5,9&13): 6/6 | Survivors Day 9(48) (Lewis Lung Carcinoma; 6 mg/kg/inj ip, d. 5, 9&13): 6/6 | Survivors Day 9(48) (Lewis Lung Carcinoma; 6 mg/kg/inj iv, d. 5,9&13): 6/6 | Survivors Day 9(48) (Lewis Lung Carcinoma; 8 mg/kg/inj ip, d. 5, 9&13): 6/6 | Survivors Day 9(48) (Lewis Lung Carcinoma; 8 mg/kg/inj iv, d. 5,9&13): 6/6 | maximum T/C (Lewis Lung Carcinoma; given ip, therapy from day 5): 212-220% | T/C (Lewis Lung Carcinoma; given iv, therapy from day 5): inactive | Average Weight Change,g (L-1210 Leukemia; 0.4 mg/kg/inj ip, qd 1→9): +0.8 g | Effect MST % T/C (L-1210 Leukemia; 0.4 mg/kg/inj ip, qd 1→9): 117 % T/C | MST Days (L-1210 Leukemia; 0.4 mg/kg/inj ip, qd 1→9): 7.0 days | Survivors Day 5(30) (L-1210 Leukemia; 0.4 mg/kg/inj ip, qd 1→9): 6/6 | Average Weight Change,g (L-1210 Leukemia; 0.8 mg/kg/inj ip, qd 1→9): -0.8 g | Effect MST % T/C (L-1210 Leukemia; 0.8 mg/kg/inj ip, qd 1→9): 133 % T/C | MST Days (L-1210 Leukemia; 0.8 mg/kg/inj ip, qd 1→9): 8.0 days | Survivors Day 5(30) (L-1210 Leukemia; 0.8 mg/kg/inj ip, qd 1→9): 6/6 | Average Weight Change,g (L-1210 Leukemia; 1.6 mg/kg/inj ip, qd 1→9): -2.5 g | Effect MST % T/C (L-1210 Leukemia; 1.6 mg/kg/inj ip, qd 1→9): 200 % T/C | MST Days (L-1210 Leukemia; 1.6 mg/kg/inj ip, qd 1→9): 12.0 days | Survivors Day 5(30) (L-1210 Leukemia; 1.6 mg/kg/inj ip, qd 1→9): 6/6 | Average Weight Change,g (L-1210 Leukemia; 2.4 mg/kg/inj ip, qd 1→9): -3.1 g | Effect MST % T/C (L-1210 Leukemia; 2.4 mg/kg/inj ip, qd 1→9): 167 % T/C | MST Days (L-1210 Leukemia; 2.4 mg/kg/inj ip, qd 1→9): 10.0 days | Survivors Day 5(30) (L-1210 Leukemia; 2.4 mg/kg/inj ip, qd 1→9): 6/6 | Average Weight Change,g (L-1210 Leukemia; 4 mg/kg/inj ip, d.1): -1.5 g | Effect MST % T/C (L-1210 Leukemia; 4 mg/kg/inj ip, d.1): 167 % T/C | MST Days (L-1210 Leukemia; 4 mg/kg/inj ip, d.1): 10.0 days | Survivors Day 5(30) (L-1210 Leukemia; 4 mg/kg/inj ip, d.1): 6/6 | Average Weight Change,g (L-1210 Leukemia; 6 mg/kg/inj ip, d.1): -3.7 g | Effect MST % T/C (L-1210 Leukemia; 6 mg/kg/inj ip, d.1): 167 % T/C | MST Days (L-1210 Leukemia; 6 mg/kg/inj ip, d.1): 10.0 days | Survivors Day 5(30) (L-1210 Leukemia; 6 mg/kg/inj ip, d.1): 6/6 | Average Weight Change,g (L-1210 Leukemia; 8 mg/kg/inj ip, d.1): -2.8 g | Effect MST % T/C (L-1210 Leukemia; 8 mg/kg/inj ip, d.1): 158 % T/C | MST Days (L-1210 Leukemia; 8 mg/kg/inj ip, d.1): 9.5 days | Survivors Day 5(30) (L-1210 Leukemia; 8 mg/kg/inj ip, d.1): 6/6 | Average Weight Change,g (L-1210 Leukemia; 10 mg/kg/inj ip, d.1): -2.0 g | Effect MST % T/C (L-1210 Leukemia; 10 mg/kg/inj ip, d.1): 208 % T/C | MST Days (L-1210 Leukemia; 10 mg/kg/inj ip, d.1): 12.5 days | Survivors Day 5(30) (L-1210 Leukemia; 10 mg/kg/inj ip, d.1): 6/6 | maximum T/C (L-1210 Leukemia; qd 1→9, 1.6 mg/kg/inj): 200% | maximum T/C (L-1210 Leukemia; single ip injections): 208% | optimal doses (L-1210 Leukemia; single ip injections, dose of maximum T/C): 10 mg/kg
